Results from patent US20230416703A1, “Methods and Materials for Producing Polyols and Electron Rich Compounds” (THE TRUSTEES OF PRINCETON UNIVERSITY, priority 2019, published 2023).
Entries after “also recorded” stand apart in the source; their conditions may differ.

Tests used:
Pyp1 = target: T1, Pyp1 (Saccharomyces cerevisiae, UniProt P53981); assay: Phosphatase activity of purified recombinant Pyp1 against phosphorylated substrates; format: biochemical, S. cerevisiae; details: incubation with purified Pyp1, 0.5 mM substrate
T1 construct: made in house; host or cells: E. coli BL21 (DE3) Gold
Protocol: Purified Pyp1 phosphatase activity was assayed in the presence of 0.5 mM substrate and 5 mM Mg^2+ (pH=7.0, 30° C.) by monitoring the appearance of free phosphate or the polyol. The y axis represents specific phosphatase activity (μmol product made per mg of protein per minute) (mean±range of N=2 replicates).
Purified Pyp1's phosphatase activity was assayed against 0.5 mM ribitol-5P by LC-MS. […] (FIG. 10B). Pyp1's D-polyol phosphatase activity was measured in the presence of 0.5 mM substrate and 5 mM Mg^2+ (pH=7.0, 30° C.) by monitoring the appearance of phosphate or the polyol. The y-axis represents specific phosphatase activity (moles product per min per mg of protein) (mean±range, N=2).
In the initial screening of Pyp1's phosphatase activity, the gene encoding Pyp1 was amplified by PCR using S. cerevisiae genomic DNA. The amplified fragments were cloned into a modified pET15b vector (Novagen, Darmstadt, Germany) and overexpressed in the E. coli BL21(DE3) Gold strain (Stratagene, La Jolla, California) as previously described by Kuznetsova et al., J Biol Chem 2010, 285, 21049. The recombinant proteins were purified using metal ion affinity chromatography on nickel affinity resin (Qiagen, Hilden, Germany) to high homogeneity and stored at −80° C. Purified Pyp1 was screened for the presence of phosphatase activity against the general phosphatase substrate p-nitrophenyl phosphate (pNPP) and 90 phosphorylated metabolites as described previously by Kuznetsova et al., J Biol Chem 2006, 281, 36149. […]
Briefly, the gene encoding Pyp1 was amplified by PCR using S. cerevisiae genomic DNA. The amplified fragments were cloned into a modified pET15b vector (Novagen, Darmstadt, Germany) and overexpressed in the E. coli BL21 (DE3) Gold strain (Stratagene, La Jolla, California) as previously described (Kuznetsova et al., 2010). The recombinant protein was purified using metal ion affinity chromatography on nickel chelate resin (Qiagen, Hilden, Germany) to high homogeneity and stored at −80° C. Purified Pyp1 was then screened for phosphatase activity as described previously (Kuznetsova et al., 2006).

wild type yeast cells = assay: Growth rate of wild type yeast in the presence of ribitol; format: cell-based, Saccharomyces cerevisiae; details: 1% trehalose +/- 1% ribitol
From the text: (§1) Wild type yeast and pyp1Δ cells growing on 1% trehalose in the absence or presence of 1% ribitol (upper panel) were switched to media with trehalose substituted by 1% glucose (lower panel). The y axis represents ratio of growth rates (mean±range of N=2 replicates) of cells growing in the presence of ribitol vs. cells growing in the absence of ribitol. […] The x axis represents hours after the switch and the y axis represents absolute intracellular concentration (mean±range of N=2 replicates). […] The x axis represents different growth rates and the y axis represents relative expression level of PYP1. […] The y axis represents absolute intracellular concentration, except for the panel displaying the NADPH/NADP^+ ratio (mean±range of N=2 replicates).
(§2) (FIG. 12A). Growth of wild type and pyp1Δ yeast on sorbitol. Yeast cells grown on YPD medium were switched to minimal media containing 2% sorbitol as the carbon source. The x-axis represents days after the switch and the y-axis represents optical density (A600). (FIG. 12B). Absolute concentration of sorbitol-6-phosphate in wild type and pyp1Δ cells in the experiment shown in (A). The x-axis represents days after the switch and the y-axis represents absolute intracellular concentration (mean±range, N=2). (FIG. 12C). Growth of wild type and pyp1Δ cells on glycerol and mannitol. […]

pyp1Δ cells = assay: Growth rate of pyp1Δ yeast in the presence of ribitol; format: cell-based, Saccharomyces cerevisiae
From the text: as §1, §2

[1] = target: T2, yeast Pgi1 (phosphoglucose isomerase) (Saccharomyces cerevisiae, UniProt P12709); assay: Inhibition of purified Pgi1 (phosphoglucose isomerase) activity, LC/MS detection of glucose-6-phosphate; format: biochemical; details: for Inhibition of Pgi1 (in words): 0.6 mM fructose-6-phosphate, 0.05-5 mM polyol phosphate
T2 construct: purchased Sigma Aldrich (St. Louis, MO)
Protocol: Purified Pgi1's activity was assayed in the presence of 0.6 mM fructose-6-phosphate, 5 mM Mg^2+ (pH=7.0, 30° C.) and a range of 0.05-5 mM of sorbitol-6P or ribitol-5P by monitoring the appearance of glucose-6-phosphate. The y axis represents relative Pgi1 activity (mean±range of N=2 replicates).
FIGS. 13A-13C show polyol phosphates inhibit phosphoglucose isomerase in vitro and in growing yeast. (FIG. 13A). Activity of the purified Pgi1 was assayed in the presence of 0.6 mM fructose-6-phosphate (substrate), 5 mM Mg2+ (pH=7.0, 30° C.) and a range of 0.05-5 mM of sorbitol-6P or ribitol-5P by monitoring the appearance of glucose-6-phosphate. The x-axis represents polyol phosphate concentration and the y-axis represents relative Pgi1 activity (mean±range of N=2 replicates). (FIG. 13B). […] This experiment is used to define a characteristic low-Pgi metabolome. (FIG. 13C). Metabolome profiling of pyp1Δ (dark red) and wild type (blue) cells at t=1 h after switching from trehalose+ribitol to glucose+ribitol.
For the determination of IC50 of sorbitol-6-phosphate and ribitol-5-phosphate on phosphoglucose isomerase, yeast Pgi1 was purchased from Sigma Aldrich (St. Louis, MO). Phosphoglucose isomerase activity was determined by adding fructose-6-phosphate and monitoring the appearance of glucose-6-phosphate using LC/MS. It was determined that the LC/MS-based assay is consistently more sensitive and accurate than the colometric-based assay, which involves coupling the Pgi1 activity with glucose-6-phosphate dehydrogenase activity and monitoring the appearance of NADH. The reaction mixture contained 100 mM Tris-HCl at a pH of 8.0, 10 mM MgCl2, 0.6 mM fructose-6-phosphate (concentration in cells grown exponentially on glucose), and a range of sorbitol-6-phosphate and ribitol-5-phosphate concentrations (0.05 to 5 mM). The resulting data were again fitted to the Hill equation using the GraphPad Prism Software.
To measure the inhibition of Pgi by sorbitol-6-phosphate and ribitol-5-phosphate, yeast Pgi1 was purchased from Sigma Aldrich (St. Louis, MO). Phosphoglucose isomerase activity was determined by adding fructose-6-phosphate and monitoring the appearance of glucose-6-phosphate using LC/MS. We found such LC/MS based assay is consistently more sensitive and accurate than the more typical colorimetric-based assay, which involves coupling the Pgi1 activity with glucose-6-phosphate dehydrogenase activity and monitoring the appearance of NADH. The reaction mixture contained 100 mM Tris-HCl at pH 8.0, 10 mM MgCl2, 0.6 mM fructose-6-phosphate (the physiological concentration in cells grown exponentially on glucose), and a range of sorbitol-6-phosphate and ribitol-5-phosphate concentrations (0.05 to 5 mM). The resulting data were fitted to the Hill equation using the GraphPad Prism Software.

T2 sequence (P12709 2-554 limits assumed): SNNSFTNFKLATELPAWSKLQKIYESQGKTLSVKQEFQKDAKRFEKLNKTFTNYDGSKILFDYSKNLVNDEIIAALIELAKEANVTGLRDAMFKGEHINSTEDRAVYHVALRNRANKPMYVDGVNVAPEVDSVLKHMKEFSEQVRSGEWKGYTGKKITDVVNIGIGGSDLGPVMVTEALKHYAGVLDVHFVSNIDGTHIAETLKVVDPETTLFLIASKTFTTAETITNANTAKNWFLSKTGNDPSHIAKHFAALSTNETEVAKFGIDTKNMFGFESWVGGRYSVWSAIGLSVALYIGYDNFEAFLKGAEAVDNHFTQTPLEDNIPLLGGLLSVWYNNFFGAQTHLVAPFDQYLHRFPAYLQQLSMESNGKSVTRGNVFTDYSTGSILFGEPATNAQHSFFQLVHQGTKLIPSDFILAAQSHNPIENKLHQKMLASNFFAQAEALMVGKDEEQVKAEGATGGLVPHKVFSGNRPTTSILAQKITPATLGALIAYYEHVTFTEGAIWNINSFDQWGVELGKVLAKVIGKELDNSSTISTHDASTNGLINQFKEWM
T1 sequence (P53981 whole entry): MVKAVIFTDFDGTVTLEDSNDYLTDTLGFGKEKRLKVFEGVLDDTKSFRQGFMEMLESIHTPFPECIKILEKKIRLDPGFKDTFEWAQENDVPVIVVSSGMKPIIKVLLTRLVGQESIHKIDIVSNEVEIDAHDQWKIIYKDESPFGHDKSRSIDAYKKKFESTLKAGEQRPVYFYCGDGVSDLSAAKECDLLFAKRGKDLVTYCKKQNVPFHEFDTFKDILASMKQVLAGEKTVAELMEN

**Q.** For O=P(O)(O)OCC(O)CO [glycerol-1P, D-glycerol-3-phosphate], which “Pyp1 phosphatase activity on substrate (in words)” value (shortened to “Pyp1 phosphatase activity”) (Pyp1) is on record?
**A.** depletion

**Q.** What about the “Pyp1 phosphatase activity” value (Pyp1; listed as Glycerol-1-phosphate) of the same compound?
**A.** in vitro substrate

**Q.** Which “Pyp1 phosphatase activity” value (Pyp1) does the source give for O=P(O)(O)OCC(O)CO (racemic) [racemic glycerol-3P] here?
**A.** hydrolysis

**Q.** Which “Pyp1 phosphatase activity” value (Pyp1) does the source give for O=C[C@H](O)[C@H](O)COP(=O)(O)O [erythrose-4P] here?
**A.** hydrolysis

**Q.** What does the source list for O=C(CO)[C@@H](O)[C@H](O)[C@H](O)[C@H](O)[C@H](O)COP(=O)(O)O [O8P, D-Glycero-D-Altro-Octulose-8-phosphate]?
**A.** Pyp1 phosphatase activity on substrate (in words) (Pyp1): No detectable phosphatase activity; Pyp1 phosphatase activity on substrate (in words) (Pyp1; listed as octulose-8P): no detectable phosphatase activity

**Q.** What does the source list for OC[C@@H](O)[C@@H](O)[C@@H](O)CO [ribitol]?
**A.** Effect on growth rate of wild type cells growing on trehalose (wild type yeast cells): does not affect the growth rate; also recorded: without impacting growth rate; Decrease of the growth rate of pyp1Δ cells (pyp1Δ cells; 1% trehalose +/- 1% ribitol): ~20%

**Q.** Which results are given for O=P(O)(O)OC[C@@H](O)[C@@H](O)[C@@H](O)CO [ribitol-5P, ribitol-5-phosphate]?
**A.** Inhibition of Pgi1 (in words) [1]: did not inhibit Pgi1 as strongly as sorbitol-6P; also recorded: less potently; Pyp1 phosphatase activity on substrate (in words) (Pyp1): depletion; Lower growth rate in pyp1Δ cells after carbon upshift (pyp1Δ cells; switched from trehalose + ribitol to glucose plus ribitol): ~50%

**Q.** Which “Pyp1 phosphatase activity” value (Pyp1; listed as (L)-glycerol-3P) does the source give for O=P(O)(O)OC[C@H](O)CO [glycerol-3P, L-glycerol-3-phosphate] here?
**A.** very low activity

**Q.** What does the source list for O=P(O)(O)OC[C@@H](O)[C@@H](O)[C@H](O)[C@@H](O)CO [sorbitol-6P, sorbitol-6-phosphate]?
**A.** Inhibition of Pgi1 (in words) [1]: inhibit; inhibition at 1000 µM ([1]; 1 mM sorbitol-6P added, read-out: Pgi1 activity inhibited): > 85%; IC50 ([1]; purified Pgi1, 0.6 mM fructose-6-phosphate, inhibitor range 0.05-5 mM): ~50 µM; Pyp1 phosphatase activity on substrate (in words) (Pyp1): depletion; also recorded: hydrolysis
